Laboratory results from ChEMBL document CHEMBL3039007, “Structure-based identification of OATP1B1/3 inhibitors” (Mol Pharmacol, 2013).

Key:
[1] = target: T1, Solute carrier organic anion transporter family member 1B1 (Homo sapiens, UniProt Q9Y6L6); conditions: chinese hamster, cho, 10 µM
T1 sequence (Q9Y6L6 whole entry): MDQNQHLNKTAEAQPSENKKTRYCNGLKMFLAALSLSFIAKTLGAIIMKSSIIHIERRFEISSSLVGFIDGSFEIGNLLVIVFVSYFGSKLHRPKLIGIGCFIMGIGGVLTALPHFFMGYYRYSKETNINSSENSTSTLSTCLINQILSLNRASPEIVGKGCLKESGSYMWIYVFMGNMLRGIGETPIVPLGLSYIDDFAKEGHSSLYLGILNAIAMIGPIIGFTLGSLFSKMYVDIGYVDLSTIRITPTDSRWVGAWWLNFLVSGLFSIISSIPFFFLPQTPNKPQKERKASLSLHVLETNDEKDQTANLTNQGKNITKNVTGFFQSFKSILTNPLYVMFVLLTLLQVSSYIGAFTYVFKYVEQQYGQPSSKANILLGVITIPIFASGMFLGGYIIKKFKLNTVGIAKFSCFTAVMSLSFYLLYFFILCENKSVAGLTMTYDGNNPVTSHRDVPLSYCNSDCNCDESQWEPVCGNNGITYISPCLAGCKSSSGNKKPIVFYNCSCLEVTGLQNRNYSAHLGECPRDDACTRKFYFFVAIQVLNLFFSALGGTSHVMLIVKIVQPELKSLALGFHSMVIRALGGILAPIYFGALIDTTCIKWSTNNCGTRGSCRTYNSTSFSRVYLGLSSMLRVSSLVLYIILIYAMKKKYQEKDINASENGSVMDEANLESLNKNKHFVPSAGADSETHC

[2] = target: T2, Solute carrier organic anion transporter family member 1B3 (Homo sapiens, UniProt Q9NPD5); conditions: chinese hamster, cho, 10 µM
T2 sequence (Q9NPD5 whole entry): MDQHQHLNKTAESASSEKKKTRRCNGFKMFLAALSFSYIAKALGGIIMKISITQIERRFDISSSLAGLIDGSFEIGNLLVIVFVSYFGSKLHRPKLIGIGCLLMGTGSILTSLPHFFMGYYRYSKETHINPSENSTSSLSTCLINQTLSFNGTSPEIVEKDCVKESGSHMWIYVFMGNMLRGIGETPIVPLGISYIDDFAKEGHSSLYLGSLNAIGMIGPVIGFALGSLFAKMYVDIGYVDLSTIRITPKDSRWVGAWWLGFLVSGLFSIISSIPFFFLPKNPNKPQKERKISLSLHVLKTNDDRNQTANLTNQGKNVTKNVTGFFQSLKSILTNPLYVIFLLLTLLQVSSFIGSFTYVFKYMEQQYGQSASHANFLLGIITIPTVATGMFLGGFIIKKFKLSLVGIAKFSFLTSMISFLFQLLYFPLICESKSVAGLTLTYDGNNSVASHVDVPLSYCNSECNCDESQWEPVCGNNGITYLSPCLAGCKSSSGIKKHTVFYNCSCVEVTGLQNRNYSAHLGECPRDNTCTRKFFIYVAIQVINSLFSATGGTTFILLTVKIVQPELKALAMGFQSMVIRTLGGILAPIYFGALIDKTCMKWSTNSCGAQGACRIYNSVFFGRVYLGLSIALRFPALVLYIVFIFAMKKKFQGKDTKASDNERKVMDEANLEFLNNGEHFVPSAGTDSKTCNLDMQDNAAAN

SMILES | residual activity [1] [%] | residual activity [2] [%]
CC[C@@]1(O)C[C@H](O[C@H]2C[C@H](N(C)C)[C@H](O)[C@H](C)O2)c2c(cc3c(c2O)C(=O)c2c(O)cccc2C3=O)[C@H]1C(=O)OC.Cl [AKLAVINE HYDROCHLORIDE] | 70.22 | 83.91
NC(=O)c1ccc([N+](=O)[O-])cc1Cl [AKLOMIDE] | 115.5 | 100.2
CCc1cccc(CC)c1N(COC)C(=O)CCl [ALACHLOR] | 103.5 | 105
CC(N)C(=O)OC(C)(C)Cc1ccc(Cl)cc1 (stereo not drawn) [ALAPROCLATE] | 84.52 | 98.54
CCCSc1ccc2nc(NC(=O)OC)[nH]c2c1 [ALBENDAZOLE] | 102.7 | 95.9
NC(=O)NCC(N)C(=O)O (stereo not drawn) [ALBIZZIINE] | 118.1 | 110.8
CNC(=O)O/N=C/C(C)(C)SC [ALDICARB] | 120.5 | 80.05
ClC1=C(Cl)C2(Cl)C3C4C=CC(C4)C3C1(Cl)C2(Cl)Cl (stereo not drawn) [ALDRIN] | 121.9 | 124.9
NC(=O)NC1NC(=O)NC1=O (stereo not drawn) [ALLANTOIN] | 67.4 | 86.17
Oc1ncnc2[nH]ncc12 [ALLOPURINOL] | 68.8 | 84.36
O=C1NC(=O)C(=O)C(=O)N1 [ALLOXAN] | 118.2 | 108.5
CN(C)CCc1c[nH]c2ccc(CS(=O)(=O)N3CCCC3)cc12 [ALMOTRIPTAN] | 95.85 | 94.33
O=C1c2c(O)cccc2C([C@@H]2O[C@H](CO)[C@@H](O)[C@H](O)[C@H]2O)c2cc(CO)cc(O)c21 (stereo partly drawn) [ALOIN] | 48.46 | 66.8
C/C1=C\CC/C(C)=C/CC(C)(C)/C=C/C1 [ALPHA-HUMULONE] | 112.4 | 109.1
C=CCc1ccccc1OCC(O)CNC(C)C (stereo not drawn) [ALPRENOLOL] | 89.01 | 120.6
C=CCSCC1Nc2cc(Cl)c(S(N)(=O)=O)cc2S(=O)(=O)N1 (stereo not drawn) [ALTHIAZIDE] | 107.1 | 95.11
CCN(CCCc1ccccc1)CCCc1ccccc1.O=C(O)CC(O)(CC(=O)O)C(=O)O [ALVERINE CITRATE] | 48.34 | 74.4
COc1c2c(cc3c1OCO3)[C@]13C=C[C@H](OC)C[C@H]1N(C2)C[C@@H]3O [AMBELLINE] | 91.95 | 88.47
CC(=O)OCC(=O)[C@@]12OC3(CCCC3)O[C@@H]1C[C@H]1[C@@H]3CCC4=CC(=O)C=C[C@]4(C)[C@@]3(F)[C@@H](O)C[C@@]12C [AMCINONIDE] | 35.76 | 56.58
Cl.N=C(N)NC(=O)c1nc(Cl)c(N)nc1N.O.O [AMILORIDE HYDROCHLORIDE] | 51.46 | 65.11
Nc1c2ccccc2nc2ccccc12 [AMINACRINE] | 54.19 | 80.82
Nc1ccc(C(=O)O)cc1 [AMINOBENZOIC ACID] | 85.02 | 88.18
CN1[C@@H]2CC[C@H]1C[C@@H](OC(c1ccccc1)c1ccccc1N)C2 (stereo partly drawn) [AMINOBENZTROPINE] | 75.33 | 77.23
CCC1(c2ccc(N)cc2)CCC(=O)NC1=O (stereo not drawn) [AMINOGLUTETHIMIDE] | 52.33 | 77
Nc1ccc(C(=O)NCC(=O)O)cc1 [AMINOHIPPURIC ACID] | 82.43 | 94.72

SMILES | residual activity [1] [%] | residual activity [2] [%]
Cl.NCC(=O)CCC(=O)O [AMINOLEVULINIC ACID HYDROCHLORIDE] | 84.34 | 89.23
Nc1nc(N)c2nc(CNc3ccc(C(=O)N[C@@H](CCC(=O)O)C(=O)O)cc3)cnc2n1 [AMINOPTERIN] | 89.56 | 124.5
Nc1ccc(C(=O)[O-])c(O)c1.O.O.[Na+] [AMINOSALICYLATE SODIUM] | 75.75 | 88.86
Nc1nccs1 [AMINOTHIAZOLE] | 92.13 | 76.59
CN(C)CCCO[C@@H]1[C@H]2OC(C)(C)O[C@H]2O[C@@H]1[C@H](O)CO [AMIPRILOSE] | 91.07 | 95.1
Cc1ccc(/N=C/N(C)/C=N/c2ccc(C)cc2C)c(C)c1 [AMITRAZ] | 108.2 | 87.86
CN(C)CCC=C1c2ccccc2CCc2ccccc21.Cl [AMITRIPTYLINE HYDROCHLORIDE] | 53.22 | 80.45
Clc1ccc2c(c1)C(N1CCNCC1)=Nc1ccccc1O2 [AMOXAPINE] | 115.8 | 101.5
C[C@@H]1[C@H](O)[C@@H](C)/C=C/C=C/C=C/C=C/C=C/C=C/C=C/[C@H](O[C@@H]2O[C@H](C)[C@@H](O)[C@H](N)[C@@H]2O)C[C@@H]2O[C@](O)(C[C@@H](O)C[C@@H](O)[C@H](O)CC[C@@H](O)C[C@@H](O)CC(=O)O[C@H]1C)C[C@H](O)[C@H]2C(=O)O [AMPHOTERICIN B] | 89.01 | 99.53
CC1(C)S[C@@H]2[C@H](NC(=O)[C@H](N)c3ccccc3)C(=O)N2[C@H]1C(=O)[O-].[Na+] [AMPICILLIN SODIUM] | 76.76 | 88.9
CCCc1ncc(C[n+]2ccccc2C)c(N)n1 [AMPROLIUM ION] | 67.38 | 78.02
N#C[C@H](O[C@@H]1O[C@H](CO[C@@H]2O[C@H](CO)[C@@H](O)[C@H](O)[C@H]2O)[C@@H](O)[C@H](O)[C@H]1O)c1ccccc1 [AMYGDALIN] | 118.1 | 103.6
CN1CCCCC1c1ccc(-c2cccnc2)nc1.Cl (stereo not drawn) [ANABASAMINE HYDROCHLORIDE] | 100 | 108.2
Cl.c1cncc([C@@H]2CCCCN2)c1 [ANABASINE HYDROCHLORIDE] | 83.96 | 91.54
Cl.N=c1ccn2c(n1)O[C@H]1[C@H](O)[C@@H](CO)O[C@H]12 [ANCITABINE HYDROCHLORIDE] | 68.78 | 66.03
C=C1[C@@H]([C@@]2(C)C=CC(=O)C(C)(C)[C@@H]2CC(=O)OC)CC[C@@]2(C)[C@H](c3ccoc3)OC(=O)[C@H]3O[C@]132 [ANDIROBIN] | 103.8 | 98.71
C=C1CC[C@@H]2[C@](C)(CO)[C@H](O)CC[C@@]2(C)[C@@H]1C/C=C1/C(=O)OC[C@H]1O [ANDROGRAPHOLIDE] | 80.16 | 84.72
C[C@]12C=CC(=O)C=C1CC[C@@H]1[C@@H]2CC[C@]2(C)C(=O)CC[C@@H]12 [ANDROSTENEDONE] | 128.1 | 104
CC(=O)O[C@@H]1CC[C@@]2(C)[C@@H](CC[C@@H]3[C@@H]2CC[C@]2(C)C(=O)CC[C@@H]32)C1 [ANDROSTERONE ACETATE] | 76.88 | 100.8
C/C=C/c1ccc(OC)cc1 [ANETHOLE] | 89.5 | 124.1
COc1ccc([C@@H](C)C(=O)c2ccc(O)cc2O)cc1 [ANGOLENSIN (R)] | 114.1 | 126.8
COc1ccc2c(=O)c(CC(=O)O)coc2c1 [ANHYDROBRAZILIC ACID] | 56.09 | 76.12
COc1ccc(C2C(=O)c3ccccc3C2=O)cc1 [ANISINDIONE] | 74.63 | 75.63
COc1ccc(C[C@H]2NC[C@H](O)[C@H]2OC(C)=O)cc1 [ANISOMYCIN] | 81.33 | 81.11
